One molecule from US5674872A, “Treatment of ovarian cancer” (SmithKline Beecham Corporation, priority 1995, dated 1997) can be followed below.

For data set [1], the system named is ovarian cancer. The data set can be described thus: Treatment of a human patient with ovarian cancer, tumor size regression evaluated by CAT scan. Type of data set: in vivo. Particulars: one platinum-refractory patient, 1.5 mg/m^2/day i.v. for five consecutive days, sustained at least until the tenth treatment. As to the method: One human patient with ovarian cancer, who was refractory to two previous platinum-containing regimens (i.e., cisplatin-cyclophosphamide combination regimen and treatment with single agent carboplatin), received a course of therapy comprising intravenous administration of 1.5 mg of topotecan/m^2 of body surface area per day for five consecutive days. This course of therapy was repeated […] nine more times to date at twenty-one day intervals (from the date of initiation of therapy) for a total of ten treatments. Tumor size regression was evaluated by CAT (computerized axial tomography) scan. […] At least until the tenth treatment, this clinically significant response was sustained, i.e., a greater than fifty percent (50%) tumor size regression was obtained.

Data set [2] can be described thus: Stability of diluted topotecan in a hang-bag. It is filed as physicochemical. The note with it: 24 hours. As to the method:
Topotecan diluted in saline (10 ug/ml or 500 ug/ml) or dextrose (6.7 ug/ml or 330 ug/ml) is stable in a hang-bag for 24 hours with at least 95% recovery.

Data set [3] is described as follows: Stability of diluted topotecan solutions in plastic bags at room temperature. It is filed as physicochemical. As to the method:
Solution Preparation--When the 5 mg vial is reconstituted with 2 ml of Sterile Water for Injection, USP, each ml will contain 2.5 mg of topotecan as the base and 50 mg of mannitol, USP. Topotecan must not be diluted or mixed with buffered solutions because of solubility and stability considerations.
Stability--Shelf life surveillance of the intact vials is ongoing. Because the single-use lyophilized dosage form contains no antibacterial preservatives, it is advised that the reconstituted solution be discarded eight hours after initial entry into the vial. Futher dilutions of the reconstituted solution to concentrations of 0.02 mg/ml and 0.1 mg.ml in 5% Dextrose Injection, USP, ("D5W") or 0.9% Sodium Chloride Injection, USP, ("NS") in plastic bags stored at room temperature yielded the following stability results: […]

SMILES strings stand for the structures.

Consider `CC[C@@]1(O)C(=O)OCc2c1cc1n(c2=O)Cc2cc3c(CN(C)C)c(O)ccc3nc2-1` [Topotecan, (S)-10[(dimethylamino)methyl]-4-ethyl-4,9-dihydroxy-1 H-pyrano[3',4':6,7]indolizino[1,2-b]quinolone-3,14(4 H,12 H)-dione], for which, in data set [1], the “tumor size regression, sustained” value is reported as more than 50%. In addition, the “recovery (stable in a hang-bag)” value is listed as “at least 95%” in data set [2] (dextrose, 6.7 ug/ml or 330 ug/ml) and “at least 95%” in data set [2] (saline, 10 ug/ml or 500 ug/ml). Moreover, the “Percentage of Initial Topotecan Remaining in Solution” value in data set [3] (D5W, 0.02 mg/ml, 0 hrs) is 100.00%; in data set [3] (D5W, 0.02 mg/ml, 6 hrs) it was 99.29%; in data set [3] (D5W, 0.02 mg/ml, 24 hrs) it was 102.30%; in data set [3] (D5W, 0.02 mg/ml, 48 hrs), 101.98%; in data set [3] (D5W, 0.1 mg/ml, 0 hrs), 100.00%; in data set [3] (D5W, 0.1 mg/ml, 6 hrs), 99.68%. The “Percentage of Initial Topotecan Remaining in Solution” value in data set [3] (D5W, 0.1 mg/ml, 24 hrs) is 98.16%; in data set [3] (D5W, 0.1 mg/ml, 48 hrs), 97.91%; in data set [3] (NS, 0.02 mg/ml, 0 hrs) it was 100.00%; in data set [3] (NS, 0.02 mg/ml, 6 hrs) it was 98.58%; in data set [3] (NS, 0.02 mg/ml, 24 hrs) it was 96.01%; in data set [3] (NS, 0.02 mg/ml, 48 hrs), 102.03%. The “Percentage of Initial Topotecan Remaining in Solution” value in data set [3] (NS, 0.1 mg/ml, 0 hrs) turned out to be 100.00%; in data set [3] (NS, 0.1 mg/ml, 6 hrs) it was 97.71%; in data set [3] (NS, 0.1 mg/ml, 24 hrs) it was 98.30%; in data set [3] (NS, 0.1 mg/ml, 48 hrs), 98.35%.
